Assay results published in paper PMC7822874, “Chemoprotective antimalarials identified through quantitative high-throughput screening of Plasmodium blood and liver stage parasites” (Scientific Reports, 2021).
Read-outs that look alike come from different tables or passages of the source.

Key:
[1] = system: T1, Plasmodium falciparum Dd2 asexual blood stage parasites; experiment: microbe, parasite or virus in culture; set-up: species or system P. falciparum Dd2 in human erythrocytes; SYBR Green-I proliferation assay, P. falciparum Dd2 asexual blood stages, growth inhibition; settings: DD2, Erythrocyte, 72 h, SYBR Green-I
T1 construct: Dd2 line, asexual blood stage
Method: The P. falciparum parasite Dd2 line was cultured in vitro using standard conditions63. Briefly, parasites were maintained in 2% human O+ erythrocytes (Interstate Blood Bank, Memphis, TN) in RPMI-1640 medium (Life Technologies, Grand Island, NY) supplemented with 0.5% Albumax II (Life Technologies), 2 mM l-glutamine, 50 mg/L hypoxanthine, 25 mM HEPES, 0.225% NaHCO3, 24 mM sodium bicarbonate, and 10 μg/ml gentamycin. Tissue culture flasks and assay plates were incubated at 37 °C under a gas mixture of 5% CO2, 5% O2 and 90% N2. Methods for the SYBR Green-I qHTS, calculation of AC50 (50% of the normalized compound response relative to the maximum response), and definition of curve classes have been described30,64–66. qHTS assays were performed in a single replicate with a 7- to 11-point dose response format, and follow-up screens with 3–11 independent 11-point response assays. Significant differences were assessed using two-sided Student’s t-tests. All HTS assays were stopped and read at 72 h. Percent response values represent relative growth as judged by SYBR Green-I fluorescence intensity values normalized to controls. […] […]

[2] = system: sporozoites / hepatocytes; settings: cited from earlier work
[3] = system: P. berghei-ANKA-GFP-LucCON liver stage parasites in HepG2-A16-CD81EGFP cells; experiment: P. berghei liver stage Pb-Luc assay, Method 1 (UCSD, 1536-well); assay type: cell-based, Plasmodium berghei; settings: Plasmodium berghei, Method 1; log10 of molar AC50 from Hill fit; read-out: Log AC50 (converted)
[4] = system: luciferase-expressing P. berghei liver stage parasites in HepG2 cells; experiment: Inhibition of liver-stage development assay (ILSDA), Method 2 (WRAIR, 96-well); assay type: cell-based, Plasmodium berghei; settings: for AC50: Plasmodium berghei, HepG2, Method 2
[5] = molecular target: T2, Firefly luciferase (Fluc, EC 1.13.12.7) (Photinus pyralis, UniProt P08659); experiment: biochemical; set-up: Firefly luciferase enzyme inhibition counterscreen, luminescence with ATP and D-luciferin; settings: read-out: Log AC50 (the source's name) (converted)
T2 sequence (P08659 whole entry): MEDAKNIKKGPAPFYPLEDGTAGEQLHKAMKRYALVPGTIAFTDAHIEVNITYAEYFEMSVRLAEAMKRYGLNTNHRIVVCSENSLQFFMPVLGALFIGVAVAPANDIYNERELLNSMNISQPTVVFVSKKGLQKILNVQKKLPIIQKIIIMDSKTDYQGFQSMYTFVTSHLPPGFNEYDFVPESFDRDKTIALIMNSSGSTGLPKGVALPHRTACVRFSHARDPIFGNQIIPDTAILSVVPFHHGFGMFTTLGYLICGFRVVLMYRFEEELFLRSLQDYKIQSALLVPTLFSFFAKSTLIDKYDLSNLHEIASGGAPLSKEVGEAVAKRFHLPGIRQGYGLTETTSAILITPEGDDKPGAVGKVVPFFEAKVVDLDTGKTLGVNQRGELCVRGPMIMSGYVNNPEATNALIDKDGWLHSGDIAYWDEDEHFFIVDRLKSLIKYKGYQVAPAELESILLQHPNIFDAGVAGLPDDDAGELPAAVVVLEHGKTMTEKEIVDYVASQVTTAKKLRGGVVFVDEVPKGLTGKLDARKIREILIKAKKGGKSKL
Method: (§1) Compound activity against the Photinus pyralis luciferase (Firefly luciferase, Fluc) reporter utilized for the liver stage assay was determined as previously described using 10 nM Fluc (EC 1.13.12.7) and 10 μM of each substrate (ATP and D-luciferin)[68]. […] Luminescence was detected using ViewLux µHTS Microplate Imager. A counter screen of these 4253 compounds was also performed against the Fluc enzyme, as both liver stage methods utilized a transgenic P. berghei Fluc parasite.

[6] = molecular target: T2, Firefly luciferase (Fluc, EC 1.13.12.7); experiment: biochemical; set-up: Firefly luciferase enzyme inhibition counter-screen, luminescence read-out
Method: as §1

HepG2 = settings: human, hepg2 cells, 48 h
in vitro = settings: human, hepg2 cells

CNC(=O)Oc1cccc(-c2cn3cc(OC(=O)NC)ccc3n2)c1 [MLS000700241-01]
AC50 [1]: > 28 µM

CC(C)(CN)c1nc(-c2ccc(Cl)c(O)c2)c(-c2ccncc2)[nH]1 [MMV030084]
IC50 ([2]; added 2 h post sporozoite addition): > 10 µM | IC50 ([2]; pre-treat hepatocytes 4 h prior to adding sporozoites): 0.199 µM

COc1cc(Cc2cnc(N)nc2N)cc(OC)c1OC [NCGC00016055-05]
AC50 [1]: > 28 µM

CCN(CC)CCCN(c1ccccc1)C1Cc2ccccc2C1.Cl [NCGC00167576-01]
AC50 [3]: 1.58 µM | Max Resp (signal direction of the dose response) ([4]; Method 2, Decrease = decreasing P. berghei viability with dose, Increase = increasing signal, Inactive = no dose response): Decrease | AC50 ([4]; Hill fit, 50% of maximum activity response, read-out: AC50): 7.94 µM | AC50 ([4]; log10 of molar AC50 from Hill fit, read-out: Log AC50 (converted)): 7.94 µM | IC50 [5]: > 57 µM | AC50 [6]: > 57 µM | Log AC50 (M) (HepG2): -4.5643 M | CC50 at 48 h (in vitro): 27.3 µM
